# Patent US4281009A, “Hydantoin derivatives” (Nippon Zoki Pharmaceutical Co., Ltd., priority 1978, dated 1981)
# Tests used:
# [1] = Acute toxicity test (LD50, Litchfield-Wilcoxon), mice; details: mouse, in vivo, ip, intraperitoneal
# Protocol: (§1) Toxicity tests were carried out by intraperitoneal administration of the compound of the present invention to groups each comprising 10 ICR-strain mice and SD-strain rats. LD50 was calculated by the Litchfield-Wilcoxon method based on the number of death 72 hours after the administration.
# [2] = Acute toxicity test (LD50, Litchfield-Wilcoxon), rats; details: rat, in vivo, ip, intraperitoneal
# Protocol: as §1
# isolated duodenum = test: Recovery of acetylcholine sensitivity of isolated duodenum of SART stress mice (Magnus method); format: in vivo, mice (dd-strain male); details: 6th day, Ach 10^-7 g/ml, Average ± S.E.
# Source text: SART stress animals used in the tests described below were raised according to a method of Kita, et al. [Folia Pharmacol. Japan.: 71, 195-210 (1975)].
# 3. Effect of recovering acetylcholine (Ach) sensitivity of isolated intestinal tract:
# Groups each comprising at least 10 dd-strain male mice were used. The compounds of the present invention or other comparative drugs were given intraperitoneally once a day during the stress-causing operation. On the 6th day, Ach (10^-7 g/ml.) sensitivity of isolated duodenum was examined using the Magnus method.
# dd-strain male mice [3] = test: Inhibitory effect on spontaneous motor activities (Animex method); format: in vivo; details: after 60 minutes
# Protocol: 4.1 Inhibitory effect on spontaneous motor activities:
# Groups each comprising 8-16 dd-strain male mice were used. The compounds of the present invention were given intraperitoneally. After 60 minutes, spontaneous motor activities for 15 minutes were measured by the Animex method.
# [4] = system: normal mice and SART stress mice; test: Analgesic effect, acetic acid writhing method; format: in vivo; details: Mus musculus, sc, 100 mg/Kg subcutaneously
# How it was run: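 Normal mice and mice after 8 days of SART stress (5 per group) received 100 mg/Kg compound subcutaneously. Writhing was then induced with 0.7% acetic acid in isotonic saline, 0.1 ml/10 g i.p. Writhes were counted over 15 minutes and compared with control mice.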
# [5] = system: normal mice and SART stress mice; test: Analgesic effect, D'Amour-Smith method; format: in vivo, mice (ddY-strain male); details: for responders at 100 mg/kg / responders at 160 mg/kg: Mus musculus; for responders at 160 mg/kg: peroral 160 mg/kg; for Analgesic effect: peroral 50 mg/kg
# How it was run: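 ddY male normal mice and mice under 4-day SART stress (n=10/group); black-inked tail root irradiated with infrared rays (up to 15 s cutoff), escape latency recorded. Effect expressed as proportion of mice whose mean latency at 30, 60, 90 and 120 min post-dose was at least 2× pre-dose latency.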
# [6] = system: normal rats and SART stress rats; test: Analgesic effect, pain induced by Bradykinin; format: in vivo, rats (SD-strain male)
# Protocol: 5.4 Method of measuring a pain induced by Bradykinin:
# Groups each comprising 4-8 SD-strain male normal rats and SART stress rats to which SART stress had been applied for 4 days were used. The tests were carried out according to the method of Deffenu et al. [Deffenu, G., Pegrassi, L., & Fumachi. B.; J. Pharm. Pharmacol.; 18, 135 (1966)] and Blane method [Blane, G. F.; J. Pharm. Pharmacol.; 19, 367 (1967)]. The effect judged was shown by ratio of the rats in which the effect was recognized according to the method of Abe, et al. [Abe, Kaneko & Takagi; Folia Pharmacol. Japon.; 67, 9-14 (1971)].
# dd-strain male mice [7] = test: Antiulcerogenic effect on Takagi's restraint-plus-water-immersing ulcer; format: in vivo; details: Mus musculus, ip; for inhibition in vivo at 75 mg/kg: 75 mg/kg intraperitoneal; for inhibition in vivo at 125 mg/kg: 125 mg/kg intraperitoneal
# How it was run: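 Groups of 8–26 male dd mice given compound intraperitoneally immediately before restraint plus water immersion (Takagi method). Summed lesion length in the glandular stomach was compared with that of the control group.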
# Wistar-strain male rats = test: Antiulcerogenic effect on Shay's ulcer (operative ulcer); format: in vivo; details: 10 times
# Protocol: 6.2. Antiulcerogenic effect on Shay's ulcer (operative ulcer):
# Tests were carried out by using groups of rats each comprising 5-10 Wistar-strain male rats according to Shay method [Shay Harry; Gastroenterology,; 5, 43 (1945)]. Ulcers in the anterior stomach were classified on the following basis:
# 2. 1-5 small ulcers (diameter of less than 3 mm)
# 3. 6 or more small ulcers or one big ulcer (diameter of more than 3 mm)
# 4. two or more big ulcers
# ddY-strain male mice = test: Effect of prolongation of sleeping time (hexobarbital); format: in vivo; details: for change in vivo at 100 mg/kg / change in vivo at 300 mg/kg: Mus musculus, ip; for change in vivo at 100 mg/kg: 100 mg/kg intraperitoneal; for change in vivo at 300 mg/kg: 300 mg/kg intraperitoneal
# How it was run: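 Groups of 10 male ddY mice received compounds intraperitoneally along with intraperitoneal sodium hexobarbital. Loss of righting reflex was timed, and prolongation was measured against control mice.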
# [8] = system: spontaneously hypertensive rats (SHR); test: Antihypertensive effect in spontaneously hypertensive rats; format: in vivo; details: 60 minutes
# Protocol: 8. Antihypertensive effect: Groups of rats each comprising 6-9 spontaneously hypertensive rats (SHR) were used. The compounds of the present invention or DPH was given intraperitoneally. The rate of antihypertension 60 minutes after the administration was determined.
# [9] = ip, SART stress mice, intraperitoneal 100 mg/kg
# [10] = ip, normal mice, intraperitoneal 100 mg/kg
# [11] = po, SART stress mice, peroral 100 mg/kg
# [12] = po, normal mice, peroral 100 mg/kg
# [13] = SART stress rats, intraperitoneal 100 mg/kg
# [14] = SART stress rats, peroral 100 mg/kg
# [15] = normal rats, intraperitoneal 100 mg/kg
smiles,measurement,setting,value
"COc1ccc(C2(c3ccc(OC)c(Cl)c3)NC(=O)NC2=O)cc1 (stereo not shown) [Compound 2, 5-(3-chloro-4-methoxyphenyl)-5-(4-methoxyphenyl)hydantoin]",LD50 at 72 h,[1]; female,920 mg/kg
same,LD50 at 72 h,[1]; male,1000 mg/kg
same,LD50 at 72 h,[2]; female,1540 mg/kg
same,LD50 at 72 h,[2]; male,1600 mg/kg
same,Ach-induced contraction of the isolated deodedum,isolated duodenum; 10 mg/kg/day intraperitoneal,80 ± 13%
same,Inhibitory effect on spontaneous motor activities,dd-strain male mice [3]; 50 mg/kg intraperitoneal,39.8%
same,Inhibitory effect on spontaneous motor activities,dd-strain male mice [3]; 100 mg/kg intraperitoneal,50.1%
same,Inhibitory effect on spontaneous motor activities,dd-strain male mice [3]; 125 mg/kg intraperitoneal,56.3%
same,inhibition in vivo at 100 mg/kg,[4]; SART stress mice,27.1%
same,inhibition in vivo at 100 mg/kg,[4]; normal mice,4.4%
same,responders at 100 mg/kg,[5]; [9],50%
same,responders at 100 mg/kg,[5]; [10],30%
same,responders at 100 mg/kg,[5]; [11],30%
same,responders at 160 mg/kg,"[5]; po, SART stress mice",60%
same,responders at 100 mg/kg,[5]; [12],10%
same,responders at 160 mg/kg,"[5]; po, normal mice",30%
same,Analgesic effect,[6]; [13],75%
same,Analgesic effect,[6]; [14],30%
same,Analgesic effect,[6]; [15],66.7%
same,Analgesic effect,"[6]; normal rats, peroral 100 mg/kg",10%
same,inhibition in vivo at 75 mg/kg,dd-strain male mice [7],15.4%
same,inhibition in vivo at 150 mg/kg,dd-strain male mice [7]; 150 mg/kg intraperitoneal,36.6%
same,Antiulcerogenic effect on Shay's ulcer (operative ulcer),Wistar-strain male rats; 100 mg/kg intraperitoneal,23.4%
same,Antiulcerogenic effect on Shay's ulcer (operative ulcer),Wistar-strain male rats; 150 mg/kg intraperitoneal,29.3%
same,change in vivo at 100 mg/kg,ddY-strain male mice,55.9%
same,change in vivo at 300 mg/kg,ddY-strain male mice,248%
same,Rate of antihypertension,[8]; 150 mg/Kg intraperitoneal,22.4%
"O=C1NC(=O)C(c2ccc(O)cc2)(c2ccc(O)cc2)N1 [Compound 4, 5,5-Bis(4-hydroxyphenyl)hydantoin]",LD50 at 72 h,[1]; female,980 mg/kg
same,LD50 at 72 h,[1]; male,1060 mg/kg
same,LD50 at 72 h,[2]; female,1320 mg/kg
same,LD50 at 72 h,[2]; male,1370 mg/kg
same,Ach-induced contraction of the isolated deodedum,isolated duodenum; 5 mg/kg/day intraperitoneal,61 ± 16%
same,Ach-induced contraction of the isolated deodedum,isolated duodenum; 10 mg/kg/day intraperitoneal,95 ± 10%
same,Inhibitory effect on spontaneous motor activities,dd-strain male mice [3]; 50 mg/kg intraperitoneal,42.4%
same,Inhibitory effect on spontaneous motor activities,dd-strain male mice [3]; 75 mg/kg intraperitoneal,52.2%
same,Inhibitory effect on spontaneous motor activities,dd-strain male mice [3]; 100 mg/kg intraperitoneal,61.4%
same,inhibition in vivo at 100 mg/kg,[4]; SART stress mice,33.6%
same,inhibition in vivo at 100 mg/kg,[4]; normal mice,4.8%
same,responders at 100 mg/kg,[5]; [9],60%
same,responders at 100 mg/kg,[5]; [10],40%
same,responders at 100 mg/kg,[5]; [11],50%
same,responders at 160 mg/kg,"[5]; po, SART stress mice",60%
same,responders at 100 mg/kg,[5]; [12],20%
same,responders at 160 mg/kg,"[5]; po, normal mice",40%
same,Analgesic effect,[5]; SART stress mice,40%
same,Analgesic effect,[5]; normal mice,10%
same,Analgesic effect,[6]; [13],100%
same,Analgesic effect,[6]; [14],40%
same,Analgesic effect,[6]; [15],100%
same,Analgesic effect,"[6]; normal rats, peroral 100 mg/kg",0%
same,inhibition in vivo at 25 mg/kg,dd-strain male mice [7]; 25 mg/kg intraperitoneal,14.2%
same,inhibition in vivo at 75 mg/kg,dd-strain male mice [7],39.1%
same,inhibition in vivo at 125 mg/kg,dd-strain male mice [7],53%
same,Antiulcerogenic effect on Shay's ulcer (operative ulcer),Wistar-strain male rats; 25 mg/kg intraperitoneal,26.4%
same,Antiulcerogenic effect on Shay's ulcer (operative ulcer),Wistar-strain male rats; 50 mg/kg intraperitoneal,38.0%
same,Antiulcerogenic effect on Shay's ulcer (operative ulcer),Wistar-strain male rats; 100 mg/kg intraperitoneal,50.0%
same,Antiulcerogenic effect on Shay's ulcer (operative ulcer),Wistar-strain male rats; 150 mg/kg intraperitoneal,64.8%
same,Effect of prolongation of sleeping time,ddY-strain male mice; 20 mg/kg intraperitoneal,37.2%
same,Effect of prolongation of sleeping time,ddY-strain male mice; 50 mg/kg intraperitoneal,84.4%
same,change in vivo at 100 mg/kg,ddY-strain male mice,124%
same,Rate of antihypertension,[8]; 100 mg/Kg intraperitoneal,21.5%
same,Rate of antihypertension,[8]; 150 mg/Kg intraperitoneal,34.1%
same,Rate of antihypertension,[8]; 300 mg/Kg intraperitoneal,45.7%
"O=C1NC(=O)C(c2cc(O)c(O)c(O)c2)(c2cc(O)c(O)c(O)c2)N1 [Compound 36, 5,5-Bis(3,4,5-trihydroxyphenyl)hydantoin]",LD50 at 72 h,[1]; female,780 mg/kg
same,LD50 at 72 h,[1]; male,820 mg/kg
same,LD50 at 72 h,[2]; female,1020 mg/kg
same,LD50 at 72 h,[2]; male,1320 mg/kg
same,Ach-induced contraction of the isolated deodedum,isolated duodenum; 10 mg/kg/day intraperitoneal,83 ± 8%
same,Inhibitory effect on spontaneous motor activities,dd-strain male mice [3]; 50 mg/kg intraperitoneal,37.8%
same,Inhibitory effect on spontaneous motor activities,dd-strain male mice [3]; 100 mg/kg intraperitoneal,49.1%
same,inhibition in vivo at 100 mg/kg,[4]; SART stress mice,29.4%
same,inhibition in vivo at 100 mg/kg,[4]; normal mice,8.2%
same,responders at 100 mg/kg,[5]; [9],60%
same,responders at 100 mg/kg,[5]; [10],40%
same,responders at 100 mg/kg,[5]; [11],30%
same,responders at 160 mg/kg,"[5]; po, SART stress mice",40%
same,responders at 100 mg/kg,[5]; [12],20%
same,responders at 160 mg/kg,"[5]; po, normal mice",30%
same,Analgesic effect,[6]; [13],50%
same,Analgesic effect,[6]; [14],33.3%
same,Analgesic effect,[6]; [15],33.3%
same,Analgesic effect,"[6]; normal rats, peroral 100 mg/kg",10%
same,inhibition in vivo at 125 mg/kg,dd-strain male mice [7],31.2%
same,Antiulcerogenic effect on Shay's ulcer (operative ulcer),Wistar-strain male rats; 100 mg/kg intraperitoneal,30.1%
same,Antiulcerogenic effect on Shay's ulcer (operative ulcer),Wistar-strain male rats; 150 mg/kg intraperitoneal,43.9%
same,change in vivo at 100 mg/kg,ddY-strain male mice,11.3%
same,change in vivo at 300 mg/kg,ddY-strain male mice,46.7%
same,Rate of antihypertension,[8]; 150 mg/Kg intraperitoneal,19.8%
